Patent publication US20130266557A1, “METHODS FOR TREATMENT OF A SARCOMA USING AN EPIMETABOLIC SHIFTER (COENZYME Q10)” (priority 2009, published 2013)

Columns and labels:
[1] = test system: NCIES0808 cells; assay: Antibody microarray analysis of protein levels; assay type: cell-based, human
Description: NCIES0808 cells were received from SBH in T165 flasks (×55). […] The cell morphology was examined closely under a microscope and the cells were noted to appear healthy with no visual signs of contamination or intracellular inclusions.
A 500 μM Q10 stock was made using the same protocol outlined for the PCR arrays. The media was exchanged in every flask with 50 μM and 100 μM Q10 media being placed into the appropriate flasks. The cells were incubated for 3 hr and 6 hr in the Q10 formulated media and the cells were harvested. Each flask was washed with 10 ml of ice cold PBS and trypsinized with 5 ml of trypsin-EDTA. The cells were harvested by gentle pipetting and the enzyme action was stopped by addition of 30 ml complete media. The cells were centrifuged at 1200 rpm for 5 minutes and media was aspirated from the tube leaving behind the cell pellet for protein extraction.
The proteins were extracted from the cells as per page 2; sub-category IA; of the manufacture's Product Information Sheet, Sigma®, Panarama® Antibody Microarray EPRESS Profiler725, cat#: XP725. The protein material from the whole cell lysates was conjugated with Cy3 and Cy5 dyes, GE Healthcare, product #: 25-8009-86 Cy3 and 25-8009-87 Cy5 as per the manufacturer's instructions outlined in the above mentioned product sheet sub-category IIA. […] The arrays were analyzed using a Fuji FLA-5100 UV scanner at the 532 nm for the Cy3 dye and 635 nm for the Cy5 dye. […]
The evaluation of changes in protein concentration due to the presence of Q10 was evaluated through the utilization of antibody microarray methods. […]
Once data sets were collected for all arrays, the data was scrutinized against three major parameters. […] An evaluation of the positive and negative Cy3/Cy5 data (included as controls on the chip) and a visual inspection of the spectral density for a given spot it was determined that and array data point with a spectral density less than 10 was approaching the background level and deemed statistically irrelevant and removed from the data series. […]

[2] = test system: NCIES0808 cells; assay: Western blot analysis; assay type: cell-based, human
Description: Cells were grown and treated with CoQ10 at 50 uM and 100 uM, along with the proper controls. The total cell lysates (as prepared above) were processed and evaluated by Western blot analysis. Proteins from each treatment group were resolved on SDS-PAGE and transferred onto PVDF membranes. They were then hybridized with antibodies.
Either 5 or 10 μg of protein was assayed per sample by immunoblotting. Proteins were separated on 10-20% Tris-HCl gels or 4-12% Bis-Tris gels, transferred via electrophoresis to PVDF membranes and blocked using a 5% GE/Amersham ECF blocker and TBST solution prior to incubation with primary antibodies. The primary antibodies were incubated overnight at 4 degrees C. in a 5% BSA and TBST solution. Secondary antibodies were incubated for one hour at room temperature. All antibodies were purchased from commercial vendors. Antibodies were used at the manufacturers' recommended dilution, with the control βActin at a dilution of 1:5000. Blots were developed using GE/Amersham ECF reagent, and results were quantified using the Fuji FL-5100 laser scanner and Bio-Rad Quantity One densitometry analysis software. All blots were also probed for and normalized to their respective βActin expression.
NCIES0808 cells treated for 24 hours with 50 or 100 μM Q10 were subjected to Western blot analysis and were analyzed to identify protein-level changes relative to the control media samples.
Protein obtained from the treated cells was evaluated by Western blot analysis against an antibody for Angiotensin-converting enzyme (ACE) (FIG. 4A), an antibody for Caspase 3 (FIG. 4B), an antibody for GARS (FIG. 4C), an antibody for Matrix Metalloproteinase 6 (MMP-6) (FIG. 4D) and a series of antibodies for Neurolysin (NLN) (FIGS. 4E-F).

[3] = Level and form of CoQ10 in mitochondrial enriched preparations; assay type: cell-based
Description: Experiments were carried out to confirm the entry of CoQ10 into cells and to determine the level and form of CoQ10 present in the cells. In particular, the level of Coenzyme Q10, as well as the form of CoQ10 (i.e., oxidized or reduced), present in the mitochondria was determined by analyzing mitochondrial enriched preparations from cells treated with CoQ10. […] In addition, changes in levels of proteins from mitochondria enriched samples were analyzed by using 2-D gel electrophoresis and protein identification by mass spectrometry characterization.

[4] = cited from earlier work
[5] = 24 hours with 50 or 100 μM Q10, relative to control media

In the case of Coenzyme Q10 [CoQ10], the “Expression of CBP/p300” value ([1]; ES0808 cell line, compared to baseline) is reported as “increase”, the “Decrease in expression (value = protein), discussion list” value ([1]; NCIES 0808 cells in response to CoQ10) is reported as “HDAC2 and HDAC4 and mTOR” and the FOXO1a expression ([1]; treatment with 100 μM CoQ10) is reported as “up regulated”. For the same substance, the “Caspase 3 protein level by Western blot” value ([2]; 24 hours of treatment with 100 μM Q10) was “marked downregulation”, the “Angiotensin-converting enzyme (ACE) protein level by Western analysis” value [2, 5] was “downregulated” and the “Caspase 3 protein level by Western analysis” value [2, 5] was “downregulated”. For the same substance, the “GARS protein level by Western analysis” value [2, 5] was “downregulated”, the “Matrix Metalloproteinase 6 protein level by Western analysis” value [2, 5] was “downregulated” and the “Neurolysin protein level by Western analysis” value [2, 5] was “downregulated”. The “Level of Coenzyme Q10 present in the mitochondria” value ([3]; addition of exogenous Q10) was “increase in a time and dose dependent manner”, the “Form of CoQ10 present in the mitochondria” value ([3]; mitochondrial enriched preparations from treated cells) was “primarily in oxidized form” and the Solubility in water [4] was “insoluble in water”.
